# According to publication PMC10607160 (International Journal of Molecular Sciences, 2023):
# Like-named read-outs stand apart in the source and are kept apart here.
# Key:
# [1] = target: T1, human GnRHR I (Homo sapiens, UniProt P30968); assay: Competitive radioligand binding (125I-DTyr6-His5-GnRH) on membranes from HEK 293 cells stably expressing GnRHR I
# T1 construct: expressed in transfected cells
# T1 sequence (P30968 1-328): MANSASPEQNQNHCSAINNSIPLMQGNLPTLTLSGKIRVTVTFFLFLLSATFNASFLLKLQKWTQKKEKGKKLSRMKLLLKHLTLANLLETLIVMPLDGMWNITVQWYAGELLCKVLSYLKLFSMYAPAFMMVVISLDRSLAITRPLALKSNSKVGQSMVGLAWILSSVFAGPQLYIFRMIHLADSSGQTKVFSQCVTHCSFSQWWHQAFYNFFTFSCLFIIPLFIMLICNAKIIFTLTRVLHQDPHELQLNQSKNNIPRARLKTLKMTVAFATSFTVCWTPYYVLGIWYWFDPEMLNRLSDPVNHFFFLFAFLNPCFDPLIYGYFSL
# [2] = target: E. coli Trx1 / E. coli TrxR (thioredoxin system) (Escherichia coli, UniProt P0AA25); assay: Disulfide bond reduction assay by EcoTrx1 (NADPH absorbance at 340 nm); assay type: biochemical; settings: for Absorbance Asample1 / Absorbance Asample2 / Absorbance Average1, 2: A340, with TrxR
# Chain of E. coli Trx1 / E. coli TrxR (thioredoxin system) (P0AA25 2-109): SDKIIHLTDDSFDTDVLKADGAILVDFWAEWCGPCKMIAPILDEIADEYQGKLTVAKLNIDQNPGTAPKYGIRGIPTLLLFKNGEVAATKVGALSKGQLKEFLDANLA
# Procedure: The assay employed was based on changes in the absorbance at 340 nm from the oxidation of NADPH using a modified version of the protocol laid out in [90]. Briefly, the decrease in A340 was measured in 96-well plates containing 100 μL of 200 mM potassium phosphate pH 7.4, 1 mM EDTA, 0.1 mg/mL BSA, 200 μM NADPH, 2 μM E. coli Trx1 and 10 nM E. coli TrxR for 5 min at 25 °C with insulin at a final concentration of 0.067 mM (0.2 mM disulfides) (see Table S2). The reduction of con7 was measured at a final concentration of 0.2 mM (see Table S3). Blanks were samples without EcoTrxR.
# Figure 4 Reduction of (A) con7 and (B) insulin by EcoTrx1. The assay mixture contains 200 mM potassium phosphate pH 7.4, 1 mM EDTA, 0.1 mg/mL BSA, 200 μM NADPH, 2 μM Escherichia coli Trx1, 10 nM E. coli TrxR, (A) 0.2 mM con7 or (B) 0.067 mM (0.2 mM disulfides) insulin. The reaction was carried out at 25 °C by monitoring the decrease of NADPH absorbance at 340 nm for (A) con7 in the absence ( [drawing 1] ) or presence of TrxR ( [drawing 2] ) and (B) insulin in the absence ( [drawing 3] ) or presence of TrxR ( [drawing 4] ).
# [3] = competition with 125I-DTyr6-His5-GnRH, HEK 293 membranes, 4 °C 16-19 h, one-site model, read-out: apparent binding affinity (IC50)
molecule,measurement,setting,value
"CCNC(=O)[C@@H]1CCCN1C(=O)[C@H](CCCNC(=N)N)NC(=O)[C@H](CC(C)C)NC(=O)[C@@H](CCCCN)NC(=O)[C@H](Cc1ccc(O)cc1)NC(=O)[C@H](CO)NC(=O)[C@H](Cc1c[nH]c2ccccc12)NC(=O)[C@H](Cc1c[nH]cn1)NC(=O)[C@@H]1CCC(=O)N1 [analogue 4, (DLys^6, Pro^9-NHEt)GnRH]",IC50,[1]; [3],2.5 nM
CCNC(=O)[C@@H]1CCCN1C(=O)[C@H](CCCNC(=N)N)NC(=O)[C@H](CC(C)C)NC(=O)[C@@H](CSSCCC(=O)OCCNCCNc1ccc(NCCNCCO)c2c1C(=O)c1c(O)ccc(O)c1C2=O)NC(=O)[C@H](Cc1ccc(O)cc1)NC(=O)[C@H](CO)NC(=O)[C@H](Cc1c[nH]c2ccccc12)NC(=O)[C@H](Cc1c[nH]cn1)NC(=O)[C@@H]1CCC(=O)N1 [con3],IC50,[1],0.07 nM
CCNC(=O)[C@@H]1CCCN1C(=O)[C@H](CCCNC(=N)N)NC(=O)[C@H](CC(C)C)NC(=O)[C@@H](CCCCNC(=O)CCCCCNC(=O)CCSSCC(=O)NCCCCNc1ccc(O)c2c1C(=O)c1ccccc1C2=O)NC(=O)[C@H](Cc1ccc(O)cc1)NC(=O)[C@H](CO)NC(=O)[C@H](Cc1c[nH]c2ccccc12)NC(=O)[C@H](Cc1c[nH]cn1)NC(=O)[C@@H]1CCC(=O)N1 [con6],IC50,[1]; [3],0.07 nM
"CCNC(=O)[C@@H]1CCCN1C(=O)[C@H](CCCNC(=N)N)NC(=O)[C@H](CC(C)C)NC(=O)[C@@H](CS)NC(=O)[C@H](Cc1ccc(O)cc1)NC(=O)[C@H](CO)NC(=O)[C@H](Cc1c[nH]c2ccccc12)NC(=O)[C@H](Cc1c[nH]cn1)NC(=O)[C@@H]1CCC(=O)N1 [analogue 2, [DCys^6, Pro^9-NHEt]GnRH]",IC50,[1]; [3],0.7 nM
insulin,Absorbance Asample1,[2]; 0 sec,0.236
same,Absorbance Asample2,[2]; 0 sec,0.257
same,"Absorbance Average1, 2",[2]; 0 sec,0.247
same,Absorbance Asample1,[2]; 9 sec,0.236
same,Absorbance Asample2,[2]; 9 sec,0.257
same,"Absorbance Average1, 2",[2]; 9 sec,0.247
same,Absorbance Asample1,[2]; 18 sec,0.236
same,Absorbance Asample2,[2]; 18 sec,0.257
same,"Absorbance Average1, 2",[2]; 18 sec,0.247
same,Absorbance Asample1,[2]; 27 sec,0.235
same,Absorbance Asample2,[2]; 27 sec,0.257
same,"Absorbance Average1, 2",[2]; 27 sec,0.246
same,Absorbance Asample1,[2]; 36 sec,0.236
same,Absorbance Asample2,[2]; 36 sec,0.256
same,"Absorbance Average1, 2",[2]; 36 sec,0.246
same,Absorbance Asample1,[2]; 45 sec,0.235
same,Absorbance Asample2,[2]; 45 sec,0.256
same,"Absorbance Average1, 2",[2]; 45 sec,0.246
same,Absorbance Asample1,[2]; 54 sec,0.235
same,Absorbance Asample2,[2]; 54 sec,0.255
same,"Absorbance Average1, 2",[2]; 54 sec,0.245
same,Absorbance Asample1,[2]; 63 sec,0.235
same,Absorbance Asample2,[2]; 63 sec,0.256
same,"Absorbance Average1, 2",[2]; 63 sec,0.246
same,Absorbance Asample1,[2]; 72 sec,0.235
same,Absorbance Asample2,[2]; 72 sec,0.255
same,"Absorbance Average1, 2",[2]; 72 sec,0.245
same,Absorbance Asample1,[2]; 81 sec,0.233
same,Absorbance Asample2,[2]; 81 sec,0.254
same,"Absorbance Average1, 2",[2]; 81 sec,0.244
same,Absorbance Asample1,[2]; 90 sec,0.235
same,Absorbance Asample2,[2]; 90 sec,0.255
same,"Absorbance Average1, 2",[2]; 90 sec,0.245
same,Absorbance Asample1,[2]; 99 sec,0.234
same,Absorbance Asample2,[2]; 99 sec,0.254
same,"Absorbance Average1, 2",[2]; 99 sec,0.244
same,Absorbance Asample1,[2]; 108 sec,0.234
same,Absorbance Asample2,[2]; 108 sec,0.255
same,"Absorbance Average1, 2",[2]; 108 sec,0.245
same,Absorbance Asample1,[2]; 117 sec,0.235
same,Absorbance Asample2,[2]; 117 sec,0.253
same,"Absorbance Average1, 2",[2]; 117 sec,0.244
same,Absorbance Asample1,[2]; 126 sec,0.234
same,Absorbance Asample2,[2]; 126 sec,0.253
same,"Absorbance Average1, 2",[2]; 126 sec,0.244
same,Absorbance Asample1,[2]; 135 sec,0.235
same,Absorbance Asample2,[2]; 135 sec,0.253
same,"Absorbance Average1, 2",[2]; 135 sec,0.244
same,Absorbance Asample1,[2]; 144 sec,0.234
same,Absorbance Asample2,[2]; 144 sec,0.253
same,"Absorbance Average1, 2",[2]; 144 sec,0.244
same,Absorbance Asample1,[2]; 153 sec,0.232
same,Absorbance Asample2,[2]; 153 sec,0.252
same,"Absorbance Average1, 2",[2]; 153 sec,0.242
same,Absorbance Asample1,[2]; 162 sec,0.233
same,Absorbance Asample2,[2]; 162 sec,0.253
same,"Absorbance Average1, 2",[2]; 162 sec,0.243
same,Absorbance Asample1,[2]; 171 sec,0.233
same,Absorbance Asample2,[2]; 171 sec,0.252
same,"Absorbance Average1, 2",[2]; 171 sec,0.243
same,Absorbance Asample1,[2]; 180 sec,0.233
same,Absorbance Asample2,[2]; 180 sec,0.252
same,"Absorbance Average1, 2",[2]; 180 sec,0.243
same,Absorbance Asample1,[2]; 189 sec,0.232
same,Absorbance Asample2,[2]; 189 sec,0.252
same,"Absorbance Average1, 2",[2]; 189 sec,0.242
same,Absorbance Asample1,[2]; 198 sec,0.233
same,Absorbance Asample2,[2]; 198 sec,0.252
same,"Absorbance Average1, 2",[2]; 198 sec,0.243
same,Absorbance Asample1,[2]; 207 sec,0.232
same,Absorbance Asample2,[2]; 207 sec,0.252
same,"Absorbance Average1, 2",[2]; 207 sec,0.242
same,Absorbance Asample1,[2]; 216 sec,0.233
same,Absorbance Asample2,[2]; 216 sec,0.252
same,"Absorbance Average1, 2",[2]; 216 sec,0.243
same,Absorbance Asample1,[2]; 225 sec,0.232
same,Absorbance Asample2,[2]; 225 sec,0.252
same,"Absorbance Average1, 2",[2]; 225 sec,0.242
same,Absorbance Asample1,[2]; 234 sec,0.232
same,Absorbance Asample2,[2]; 234 sec,0.252
same,"Absorbance Average1, 2",[2]; 234 sec,0.242
same,Absorbance Asample1,[2]; 243 sec,0.231
same,Absorbance Asample2,[2]; 243 sec,0.251
same,"Absorbance Average1, 2",[2]; 243 sec,0.241
same,Absorbance Asample1,[2]; 252 sec,0.231
same,Absorbance Asample2,[2]; 252 sec,0.251
same,"Absorbance Average1, 2",[2]; 252 sec,0.241
same,Absorbance Asample1,[2]; 261 sec,0.230
same,Absorbance Asample2,[2]; 261 sec,0.250
same,"Absorbance Average1, 2",[2]; 261 sec,0.240
same,Absorbance Asample1,[2]; 270 sec,0.230
same,Absorbance Asample2,[2]; 270 sec,0.250
same,"Absorbance Average1, 2",[2]; 270 sec,0.240
same,Absorbance Asample1,[2]; 279 sec,0.231
same,Absorbance Asample2,[2]; 279 sec,0.251
same,"Absorbance Average1, 2",[2]; 279 sec,0.241
same,Absorbance Asample1,[2]; 288 sec,0.230
same,Absorbance Asample2,[2]; 288 sec,0.250
same,"Absorbance Average1, 2",[2]; 288 sec,0.240
same,Absorbance Asample1,[2]; 297 sec,0.229
same,Absorbance Asample2,[2]; 297 sec,0.250
same,"Absorbance Average1, 2",[2]; 297 sec,0.240
same,reduction of disulfide bond by the thioredoxin system,[2]; decrease of NADPH absorbance over time in samples containing TrxR,successful
"O=C1c2c(O)ccc(O)c2C(=O)c2c(NCCNCCO)ccc(NCCNCCO)c21 [mitoxantrone, reference compound]",apparent binding affinity (IC50),"[1]; competition with 125I-DTyr6-His5-GnRH, HEK 293 membranes, 4 °C 16-19 h, one-site model",did not bind
same,IC50,[1]; [3],> 1000 nM
